Read-outs that look alike come from different tables or passages of the source.

Data set [1] relates to Plasmopara vilicola (the causal agent of grape downy mildew). Description: Test A: grape downy mildew, test suspension sprayed on grape seedlings after inoculation, visual disease rating. The format is in vivo. The conditions noted are these: Plasmopara, 144 h; * tested at 40 ppm; read-out: Percent Disease Control, Test A. The essentials:
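Curative spray: spores applied first, plants kept 24 h in saturated air at 20 °C and dried before treatment, then 5 days at 20 °C plus 24 h saturated. Suspension: acetone (3% of volume) in 1:1 acetone/water, 250 ppm Trem 014, sprayed to run-off (200 ppm ≈ 500 g/ha); visual 0–100 control rating.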

The test system of data set [2] is Phytophthora infestans (the causal agent of tomato late blight). Put plainly: whole plant or invertebrate. The format is in vivo. Conditions: Phytophthora infestans, 144 h, read-out: Percent Disease Control, Test B.
For data set [3] the test system is unchanged. Description: whole plant or invertebrate. The conditions noted are these: Phytophthora infestans, 96 h, read-out: Percent Disease Control, Test C. In kind it is in vivo.

For the compound `CCc1cc(C(F)(F)F)nn1CC(=O)N1CCC(c2nc(C3=NOC(c4ccccc4)C3)cs2)CC1` (centres unmarked) [Compound 19, 1-[4-[4-(4,5-dihydro-5-phenyl-3-isoxazolyl)-2-thiazolyl]-1-piperidinyl]-2-[5-ethyl-3-(trifluoromethyl)-1H-pyrazol-1-yl]ethanone], the melting point is 128 to 133 °C. Moreover, the pest or weed control at 40 ppm in data set [1] was found to be 100%. The pest or weed control at 40 ppm in data set [2] amounted to 100%. The pest or weed control at 40 ppm in data set [3] was 99%.
In the case of `O=C(Cn1nc(C(F)(F)F)cc1C(F)(F)F)N1CCC(c2nc(C3=NOC(c4ccccc4)C3)cs2)CC1` (centres unmarked) [Compound 22, 2-[3,5-bis(trifluoromethyl)-1H-pyrazol-1-yl]-1-[4-[4-(4,5-dihydro-5-phenyl-3-isoxazolyl)-2-thiazolyl]-1-piperidinyl]ethanone], the melting point lay in the range of 130 to 133 °C. Further, the pest or weed control at 40 ppm in data set [1] was found to be 100%. For the same compound, the pest or weed control at 40 ppm in data set [2] was 100%. Besides, in data set [3], the pest or weed control at 40 ppm came to 99%.

(Values after patent publication US9920030B2 (priority 2006, dated 2018).)
